In EP0632806B1 (priority 1992, dated 1993):
Counter-ions that a name gives are not always drawn.

Legend:
[1] = system: pentobarbital anaesthetized rats; details: rat, in vivo
[2] = system: pentobarbital anaesthetized rats subject to coronary artery occlusion; details: rat, in vivo

Question: Which BP [1] does the source give for `C=CCN1CC[C@]23c4c5ccc(O)c4O[C@H]2C(=O)CC[C@@]3(O)[C@H]1C5` [naloxone, naloxone hydrochloride] here?
Answer: The BP was 103±5.

Question: And the HR [1]?
Answer: Its HR is 379±6.

Question: What about the PR [1] of the same molecule?
Answer: Its PR is 57±1.

Question: And the QRS [1]?
Answer: The QRS was 29±1.

Question: What about the QT [1] of the same molecule?
Answer: The QT was 41±1.

Question: And the “incidence of VF arrhythmias” value [2]?
Answer: The value was “slightly decreased”.
